The record followed here is patent US6339104B1, “Therapeutic agent for primary biliary cirrhosis” (The City of Osaka, priority 1998, dated 2002).

Molecules are shown by their SMILES.

For this assay, the system named is patient with primary biliary cirrhosis (stage IV in Scheuer classification). Kind of assay: Clinical effect of oral L-alanine in a patient with terminal-stage primary biliary cirrhosis. The format is in vivo, human. The method, then: The clinical effect of L-alanine was examined in a patient with primary biliary cirrhosis. The patient was suffering from primary biliary cirrhosis in the terminal stages (stage IV in Scheuer classification). After their symptoms had appeared, 600 mg/day of ursodeoxycholic acid was orally administered as a therapeutic agent everyday. However, this treatment became ineffective and the results of biochemical tests also became worse. Under these conditions, 18 g/day of L-alanine was orally administered to the patient in three doses every day for two months. Before and after the administration of L-alanine, two weeks in total of the observation period was taken, and then eight weeks of the administration period was taken. The blood specimen was taken once a week to determine total serum bilirubin and transaminase (AST). By the administration of L-alanine, total serum bilirubin and transaminase were reduced. […] As the administration was finished, increase of both total serum bilirubin and transaminase was observed.

[1] abbreviates: observation period after end of 18 g/day oral administration.
The mark [2] stands for this setting: patient, 18 g/day orally in three doses, eight weeks administration, weekly blood specimen.

With `C[C@H](N)C(=O)O` [L-alanine], for the setting “18 g/day orally, effect on total serum bilirubin and transaminase, lasted in the course of the administration”, the “time of maximum effect after the start of the administration” value was “two”. Moreover, where the note is “L-alanine 18 g/day orally, ursodeoxycholic acid 600 mg/day orally”, the “therapeutic effect on the terminal case of primary biliary cirrhosis (symptoms)” value is “excellent therapeutic effect”. Also, under setting [1], the “total serum bilirubin after the administration was finished” value is listed as “increase” and the “transaminase after the administration was finished” value is reported as “increase”. Further, under setting [2], the total serum bilirubin result is listed as “reduced” and the “transaminase (AST)” value is “reduced”.
